Data published in PMC9721423, “Novel benzo chromene derivatives: design, synthesis, molecular docking, cell cycle arrest, and apoptosis induction in human acute myeloid leukemia HL-60 cells” (Journal of Enzyme Inhibition and Medicinal Chemistry, 2022).
Where two headings read alike, the source gives them in different places.

Columns and labels:
Test in all cases: cells
Design in all cases: species or system NCI-60 human tumour cell lines; NCI-60 five-dose growth inhibition screen, sulforhodamine B protein stain
[1] = tested on: A549/ATCC; conditions: Homo sapiens, A549, 48 h
Experimental: (§1) All the newly synthesised 28 compounds were selected for single-dose testing. NCI60 single-dose testing is performed in all 60 cell lines according to the reported assay (National Cancer Institute, https://dtp.cancer.gov/) (National Cancer Institute https://dtp.cancer.gov/discovery_development/nci-60/), compounds were dissolved in DMSO: glycerol […] and are stored in a −70 °C freezer. The prepared compounds were added at single concentration of 1 0^−5 M and the culture was incubated for 48 h. End point determinations were made with a protein binding dye, sulforhodamine B (SRB). The human tumour cell lines were derived from nine different cancer types: leukaemia, melanoma, lung, colon, central nervous system (CNS), ovarian, renal, prostate, and breast cancers. Dose–response curves for these compounds were created by plotting the percentage growth (PGs or % growth) against log10 of the corresponding concentration for every cell line. Three response parameters, GI50 (Median Growth Inhibitory Concentration), TGI (Total Growth Inhibitory Concentration), and LC50 (Median Lethal Concentration) were calculated[54] (National Cancer Institute, https://dtp.cancer.gov/discovery_development/nci-60/) (National Cancer Institute, https://dtp.cancer.gov/)[55] for compounds 5a and 6a. […] Furthermore, the average sensitivity of all cell lines towards the compound is termed as the full panel mean graph midpoints (MG-MID). The ratio obtained by dividing the full panel mean graph midpoints (MG-MID) concentration by the individual subpanel MG-MID concentrations (obtained as the average sensitivity of all cell lines of a particular subpanel towards the test compound) is considered a criterion for the compound selectivity towards the corresponding cell line. Ratios greater than 6 indicate high selectivity while ratios between 3 and 6 refer to moderate selectivity whereas compounds not meeting either of these criteria were rated non-selective[56].

[2] = tested on: BT-549; conditions: Homo sapiens, BT-549, 48 h
Experimental: as §1

[3] = tested on: CAKI-1; conditions: Homo sapiens, CAKI-1, 48 h
Experimental: as §1

[4] = tested on: HCC-2998; conditions: Homo sapiens, HCC 2998, 48 h
Experimental: as §1

[5] = tested on: HCT-116; conditions: Homo sapiens, HCT-116, 48 h
Experimental: as §1

[6] = tested on: HS 578T; conditions: Homo sapiens, Hs-578T, 48 h
Experimental: as §1

[7] = tested on: HT29; conditions: Homo sapiens, HT-29, 48 h
Experimental: as §1

[8] = tested on: K-562; conditions: Homo sapiens, K562, 48 h
Experimental: as §1

[9] = tested on: MDA-MB-231/ATCC; conditions: Homo sapiens, MDA-MB-231, 48 h
Experimental: as §1

[10] = tested on: MDA-MB-435; conditions: Homo sapiens, MDA-MB-435, 48 h
Experimental: as §1

[11] = tested on: MOLT-4; conditions: Homo sapiens, MOLT-4, 48 h
Experimental: as §1

[12] = tested on: NCI-H226; conditions: Homo sapiens, NCI-H226, 48 h
Experimental: as §1

[13] = tested on: NCI-H322M; conditions: Homo sapiens, NCI-H322M, 48 h
Experimental: as §1

[14] = tested on: NCI-H522; conditions: Homo sapiens, NCI-H522, 48 h
Experimental: as §1

[15] = tested on: OVCAR-3; conditions: Homo sapiens, OVCAR-3, 48 h
Experimental: as §1

[16] = tested on: SK-MEL-28; conditions: Homo sapiens, SK-MEL-28, 48 h
Experimental: as §1

[17] = tested on: SNB-19; conditions: Homo sapiens, SNB-19, 48 h
Experimental: as §1

`N=C(NO)C1=C(N)Oc2c(ccc3ccccc23)C1c1ccccc1` (stereo not shown) [5a, 2-Amino-4-phenyl-N-hydroxy-4H-benzo[h]chromene-3-carboxamidine] showed a GI50 ([1]; read-out: GI50 5a) of 420 nM, a GI50 ([2]; read-out: GI50 5a) of 1250 nM and a GI50 ([3]; read-out: GI50 5a) of 100 nM. The GI50 ([4]; read-out: GI50 5a) was 370 nM, the GI50 ([5]; read-out: GI50 5a) was 410 nM and the GI50 ([6]; read-out: GI50 5a) was 230 nM. For the same compound, the GI50 ([7]; read-out: GI50 5a) was 480 nM, the GI50 ([8]; read-out: GI50 5a) was 60 nM and the GI50 ([9]; read-out: GI50 5a) was 630 nM. For the same compound, the GI50 ([10]; read-out: GI50 5a) was 30 nM, the GI50 ([11]; read-out: GI50 5a) was 430 nM and the GI50 ([12]; read-out: GI50 5a) was 8010 nM. For the same compound, the GI50 ([13]; read-out: GI50 5a) was 660 nM, the GI50 ([14]; read-out: GI50 5a) was 60 nM and the GI50 ([15]; read-out: GI50 5a) was 180 nM. It also gave a GI50 ([16]; read-out: GI50 5a) of 11800 nM and a GI50 ([17]; read-out: GI50 5a) of 490 nM.
With `CC(=O)NC1=C(C#N)C(c2ccccc2)c2ccc3ccccc3c2O1` (stereo not shown) [6a, N-(3-Cyano-4-phenyl-4H-benzo[h]chromen-2-yl)acetamide] the GI50 ([1]; read-out: GI50 6a) was 980 nM, the GI50 ([2]; read-out: GI50 6a) was 990 nM and the GI50 ([3]; read-out: GI50 6a) was 340 nM. It also gave a GI50 ([4]; read-out: GI50 6a) of 1430 nM, a GI50 ([5]; read-out: GI50 6a) of 430 nM and a GI50 ([6]; read-out: GI50 6a) of 360 nM. For the same compound, the GI50 ([7]; read-out: GI50 6a) was 380 nM, the GI50 ([8]; read-out: GI50 6a) was 320 nM and the GI50 ([9]; read-out: GI50 6a) was 1250 nM. The GI50 ([10]; read-out: GI50 6a) was 230 nM, the GI50 ([11]; read-out: GI50 6a) was 490 nM and the GI50 ([12]; read-out: GI50 6a) was 1850 nM. For the same compound, the GI50 ([13]; read-out: GI50 6a) was 820 nM, the GI50 ([14]; read-out: GI50 6a) was 220 nM and the GI50 ([15]; read-out: GI50 6a) was 340 nM. It also gave a GI50 ([16]; read-out: GI50 6a) of 860 nM and a GI50 ([17]; read-out: GI50 6a) of 780 nM.
